Measured values as given in article PMC6562672, “Dose-Dependent Sorafenib-Induced Immunosuppression Is Associated with Aberrant NFAT Activation and Expression of PD-1 in T Cells” (Cancers, 2019).

Columns and labels:
[1] = test system: woodchuck T cells; test: One-way mixed lymphocyte reaction (MLR), woodchuck T cells, CFSE; format: cell-based; conditions: woodchuck vs. human MLR, 0–10 µM, dose responsive, 96 h
Procedure: (§1) Flow cytometry acquisition and compensation was performed on a LSR Fortessa (BD Biosciences, San Jose, CA, USA). Analysis of listmode data was performed using Winlist 8.0 (Verity Software House, Inc., Topsham, ME, USA). Briefly, the viable responder lymphocytes were hierarchically gated for single, low side scatter, viable cells with absent CD45 labeling. The percentage of proliferating cells was determined based on CFSE dye dilution compared to the CFSE labeling intensity from the non-proliferating MLR negative control sample. The full list of antibodies and reagents used in assays is available in Table S1.
(§2) Mixed lymphocyte reactions were performed in human (human vs. human, Figure 1E) and woodchucks (woodchuck vs. human, Figure 1F). 10 mL peripheral blood from healthy donors and 3 mL woodchuck peripheral blood isolated. Stimulator cells (human cells for both assays) were irradiated at 40 Gy in a Mark I Cesium-137 irradiator for 20 min. Following irradiation, cells were stained for CD45-APC (BD Biosciences, San Jose, CA, USA). Responder cells (non-irradiated human or woodchuck cells) were labeled with CFSE (Thermo Fisher Scientific, Eugene, OR, USA). Target and responder cells were placed in a round bottom 96 well polypropylene plate at a 2:1 ratio in the presence of 0–10 µM sorafenib and incubated at 37 °C for 96 h. […]

[2] = test system: human T cells; test: One-way mixed lymphocyte reaction (MLR), human T cells, CFSE; format: cell-based; conditions: high dose (10 µM), 96 h
Procedure: as §1, §2

[3] = Treatment toxicity in WHV-infected woodchucks (general performance, CBC, biochemistry); format: in vivo, woodchuck (Marmota monax)
Procedure: General performance statuses of animals were evaluated such as moving activity, appetite, defecation, urination, and weight changes regularly. In addition, CBC and blood biochemistry were measured two times per month during the course of experiment by ProCyte Hematology and Catalyst Chemistry Analyzers (IDEXX, Hoofddorp, The Netherlands).

[4] = test system: PD-1; test: PD-1, CD8 and CD25 expression on T cells by imaging flow cytometry; format: cell-based, human
Procedure: PBMCs were allowed to ‘recover’ in AIM-V medium (Thermo Fisher Scientific) at 37 °C, 5% CO2 in a humidified atmosphere overnight. 2 × 10^6 cells were treated with 0–10 µM sorafenib for the durations specified in the results section. If the experimental conditions required T cell stimulation, samples were co-treated (stimulated) with 1 µg/mL anti-CD3 and 1 µg/mL anti-CD28 for 2 h. Following treatment, PBMCs were placed on ice to stop drug action and immunophenotyped for CD4, CD8, CD25, and PD-1 (CD279). NFAT1 was detected by indirect labeling. Antibodies were diluted in permeabilization wash buffer (PWB) consisting of 0.1% Triton-X-100 in FCM Buffer (1× phosphate buffered saline (PBS) + 0.5%BSA). The primary Rabbit polyclonal NFAT1 antibody was diluted 1:50 in PWB. Following this, 1:200 dilution of secondary AF647 conjugated F(ab’)2 fragment donkey anti rabbit IgG antibody (Jackson ImmunoResearch Laboratories Inc., West Grove, PA, USA) was added. Just prior to data acquisition on the ImageStream, DAPI was added to all samples (0.5 µg/mL final concentration), to stain the nucleus.
Imaging flow cytometry acquisition, compensation, and analysis was performed on an imaging flow cytometer (ImagestreamX Mk-II; Amnis, part of MilliporeSigma, Seattle, WA, USA) as described previously. Following compensation for spectral overlap, image analysis was performed with IDEAS® software (Amnis, Seattle, WA, USA). To assess nuclear NFAT1 translocation, the corresponding nuclear image and NFAT1 image of each cell was compared and a Similarity Score (SS) was assigned for individual cells using published methods (Figure S3).

[5] = test system: HCC; test: Efficacy against HCC in WHV-infected woodchucks (ultrasound); format: in vivo, woodchuck (Marmota monax); conditions: for median time from first detection of tumor to 2 cm HCC: placebo 55 days; for median time to tumor development: long-term, placebo 295 days, p = 0.35
Text: Male and female eastern woodchucks (Marmota monax) from two different institutes were used. WHV-infected woodchucks from Cornell University (15) were used for a long-term efficacy study, and six woodchucks in a short-term efficacy study were bred at Roswell Park Comprehensive Cancer Institute Center. Woodchucks were infected at 3–5 days of age with dilute serum from standard infectious pools derived from WHV carriers. Pups were inoculated with diluted, pooled serum from WHV^+ animals. The inoculum was prepared from pooled serum of WHV^+ animals that is diluted aseptically 1:10 in PBS. In a biological safety cabinet, each pup is manually restrained and 100 microliters of inoculum is injected subcutaneously in the intrascapular region. Chronic infection was verified at approximately 3, 6, and 9 months of age by WHV viral titer status. Once the pups are confirmed WHV positive, they were monitored by ultrasound (Philips HDI 5000, Amsterdam, The Netherlands) to confirm the presence of HCC.
In total, 21 animals bearing one or more liver tumors were included in this study for 2 separate experiments. While receiving sorafenib or placebo, animals were monitored with ultrasound every 2 weeks for tumor development greater than 5 mm in diameter. […] Tumor volume was calculated using this formula: volume = shortest axis^2 × longest axis × 0.52.
All WHV carrier woodchucks were randomly divided into three groups such as placebo, low dose (2.5 mg/kg/day), and high dose (5.0 mg/kg/day) groups (n = 5 animals/group) in a long-term efficacy study based on clinical and preclinical studies. Also, a compartmental pharmacokinetic (PK) model was used to select the two lowest doses that can achieve exposure sufficient to inhibit pharmacodynamic targets. Experimental woodchucks were treated with placebo, 2.5 mg/kg, or 5.0 mg/kg sorafenib once daily with a 5 days on and 2 days off schedule. Animals were dosed orally until tumor development. Another experiment was performed with the low (2.5 mg/kg/day) and high (5.0 mg/kg/day) dose groups (n = 3 animals/group) to see the efficacy of short-term (90 days treatment) usage of sorafenib. The primary endpoint of the in vivo study was disease free survival (DFS), and DFS was measured from the date of randomization until the date of any liver tumor detection. The secondary endpoint was tumor size over 2 cm, which was measured from the date of first tumor detection. All experimental protocols were approved by IACUC.

**Q.** Which “MLR response (T cell proliferation)” value [1] does the source give for `CNC(=O)c1cc(Oc2ccc(NC(=O)Nc3ccc(Cl)c(C(F)(F)F)c3)cc2)ccn1` [sorafenib, Sorafenib] here?
**A.** inhibition of the woodchuck MLR response

**Q.** What about the “MLR response (T cell proliferation)” value [2] of the same molecule?
**A.** significant decrease

**Q.** And the “general performance change (moving activity, appetite, defecation, urination, weight changes)” value ([3]; 2.5 and 5.0 mg/kg/day oral, all treatment groups)?
**A.** not detected

**Q.** And the “CBC and biochemistry analyses among the three groups” value ([3]; end of experiment, placebo vs 2.5 vs 5.0 mg/kg/day)?
**A.** no statistical difference

**Q.** What about the “proportion of CD4+CD25bright T cells” value ([4]; dose-dependent manner, % of total CD4+ cells) of the same molecule?
**A.** decrease

**Q.** What about the “CD8 expression in PD-1+ cells” value ([4]; high dose (10 µM), PD-1+ T cells) of the same molecule?
**A.** decreased

**Q.** And the “NFAT1 activation and decreased expression of CD8 in PD-1 negative T cells” value ([4]; high dose (10 µM), PD-1 negative T cells)?
**A.** not observed

**Q.** And the “proportion of PD-1-expressing CD8+ and CD4+ T cells” value ([4]; high dose (10 µM), without exogenous stimulatory factors)?
**A.** increased

**Q.** What about the “median time from first detection of tumor to 2 cm HCC” value ([5]; 2.5 mg/kg) of the same molecule?
**A.** 111 days

**Q.** What about the “median time from first detection of tumor to 2 cm HCC” value ([5]; 5 mg/kg) of the same molecule?
**A.** 42 days

**Q.** What about the “median time to tumor development” value ([5]; high dose 5.0 mg/kg/day) of the same molecule?
**A.** 351 days

**Q.** And the tumor growth delay ([5]; high dose vs placebo, p = 0.5)?
**A.** failed to show any tumor growth delay effect

**Q.** What about the “animals that developed HCC” value ([5]; long-term treatment, regardless of doses of sorafenib (15 woodchucks incl. placebo)) of the same molecule?
**A.** 100%

**Q.** What about the “tumor size when first detected by ultrasound” value ([5]; low dose 2.5 mg/kg/day compared to placebo and high dose groups) of the same molecule?
**A.** smaller

**Q.** What about the “median time to tumor development” value ([5]; low dose 2.5 mg/kg/day) of the same molecule?
**A.** 384 days

**Q.** What about the tumor growth delay ([5]; low dose vs placebo and high dose, p = 0.024) of the same molecule?
**A.** significant tumor growth delay

**Q.** And the “tumor growth delay with low dose compared to high dose” value ([5]; short-term usage, 90 days, n = 3/group)?
**A.** not achieved

**Q.** And the “prevention of HCC and inhibition of WHV replication” value ([5]; sorafenib treatments compared to placebo)?
**A.** did not prevent HCC or inhibit WHV replication
